Measured values reported in PMC10464297, “Reevaluation of bromodomain ligands targeting BAZ2A” (Protein Science : A Publication of the Protein Society, 2023).
“Also recorded” adds a separate entry of the source.

How the values were obtained:
BAZ2A bromodomain [1] = molecular target: T1, BAZ2A bromodomain (Homo sapiens, UniProt Q9UIF9); assay: AlphaScreen binding competition, BAZ2A bromodomain; conditions: for % residual binding BAZ2A (100 μM): compound at 100 μM
T1 construct: BAZ2A and BAZ2B bromodomains were produced; made in house
T1 sequence (Q9UIF9 1793-1897 limits assumed): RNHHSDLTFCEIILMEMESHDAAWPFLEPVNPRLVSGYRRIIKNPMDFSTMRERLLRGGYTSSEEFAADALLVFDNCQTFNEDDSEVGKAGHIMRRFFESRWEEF
Text: (§1) BAZ2A and BAZ2B bromodomains were produced and their activity evaluated by AlphaScreen as previously reported (Dalle Vedove et al., [2018]; Spiliotopoulos et al., [2017]). BAZ2A bromodomain was crystallized as detailed in an earlier work (Spiliotopoulos et al., [2017]). Diffraction data were collected at the Elettra Synchrotron Light Source (Trieste, Italy), XRD1 and XRD2 beamlines, and the European Synchrotron Radiation Facility (ESRF, Grenoble, France), ID30A‐1/MASSIF‐1 beamline. Data were processed and structures were solved as described elsewhere (Dalle Vedove et al., [2018]). Chemical synthesis of compounds UP39 and UZH23 has already been reported (Unzue et al., [2016]; Zhu et al., [2018]). A detailed description of cell culture methods and ITC protocol is provided in the Supporting Information.
(§2) Figure S3. AlphaScreen competition binding assay for compounds UP39 and UZH23. The specific binding to the acetylated peptide relative to the control DMSO (y-axis) is plotted against the corresponding compound concentration in µM in log10 scale (x-axis).
(§3) (1 picture or pasted object on this page, not shown here)

BAZ2B bromodomain = molecular target: T2, BAZ2B bromodomain (Homo sapiens, UniProt Q9UIF8); assay: AlphaScreen binding competition, BAZ2B bromodomain; conditions: for % residual binding BAZ2B (100 μM): compound at 100 μM
T2 construct: BAZ2A and BAZ2B bromodomains were produced; made in house
T2 sequence (Q9UIF8 2060-2164 limits assumed): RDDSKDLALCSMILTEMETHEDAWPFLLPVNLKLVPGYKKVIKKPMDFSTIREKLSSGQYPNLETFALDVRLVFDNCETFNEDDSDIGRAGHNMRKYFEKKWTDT
Text: as §1, §2, §3

BAZ2A bromodomain [2] = molecular target: T1, BAZ2A bromodomain; assay: Screening by co‐crystallization with BAZ2A bromodomain; type: binding
Text: as §1

[3] = test system: first bromodomain of BRD4; design: method as in Hay et al., [2014]; Picaud et al., [2015]; conditions: ref Hay et al., [2014]; Picaud et al., [2015]; cited from earlier work
BAZ2A bromodomain [4] = molecular target: T1, BAZ2A bromodomain; assay: Isothermal titration calorimetry (ITC) on BAZ2A; type: binding
Text: It is worth noticing however that these values may be slightly overestimated. The presence of 0.25% DMSO in the ITC experiments leads to less favorable K D values as DMSO competes for binding to the conserved Asn (Lolli & Battistutta, [2013]; Navratilova et al., [2016]). […] Indeed, the change in sign of the entropic term observed for TP‐238 binding to BAZ2A (compared to BPTF and CECR2) closely resembles the effect reported for crotonyllysine binding to the TAF1 bromodomain (compared to Kac), also displacing an additional water molecule from the binding pocket (Flynn et al., [2015]). […]
Isothermal Titration Calorimetry
ITC experiments were performed using an MicroCal PEAQ-IT C microcalorimeter (Malvern Panalytical, UK) at 25°C with a stirring speed of 750 rpm in 20mM Tris pH 7. 8, 0. 2 M NaCl, 0. 2 mM TCEP and 0. 25% DMSO. For each experiment, one 0. 4 µl injection followed by eighteen 2 µl injections have been performed, with 150 seconds separating each injectio n. The inhibitors were tested at 70 µM in the cell with His -Baz2A in the syringe at 1 mM. A blank run with only the buffer was carried out (Suppl. Fig. S6). Data analysis was done with PE A Q-ITC Analysis software , fitting the curve with the ‘one site’ model.

CECR2 bromodomain = conditions: ref Ycas et al., [2020]; read-out: K D CECR2; cited from earlier work
BRD9 = conditions: ref Ycas et al., [2020]; read-out: K D BRD9; cited from earlier work
BPTF = conditions: ref Ycas et al., [2020]; read-out: K D BPTF; cited from earlier work
[5] = test system: PC3 (AR‐negative) PCa cells; assay: 2D proliferation assay (resazurin), PC3; type: cell-based
Experimental: (§4) Cell cultures, proliferation assay and spheroid gro wth […]
streptomycin and 2 m M L-glutamine. All cells were regularly tested for mycoplasma contamination.
For the proliferation assay, cells were counted with a hemocytometer and seeded in triplicates in 96-well plates (4 .5x10^3 cells/well for 22Rv1 and 2.0x103 for PC3) and let adhere overnight at 37°C, […]
(§5) transfected with siRNA for BAZ2A , RLUC or KIF11, as detailed below. The cells were incubated for 1, 3, 6 (PC3) and 9 days (22Rv1) and the medium containing either the carrier or the inhibitors was replaced every 3 day s. Cell proliferation and viability were determined at day 1, 3, 6 and 9 by adding 10% resazurin sodium salt solution (0. 03 mg/ml powder from Sigma -Aldrich) directly into each well and incubating them for 4h at 37°C, 5% CO 2. The absorbance at 570/600 nm was measured using a Varioskan plate reader. The reduction of the resazur in sodium salt was calculated using the formula: (Abs x – Abs 0. 1%DMSO day1)/(Abs 0. 1%DMSO day9 - Abs 0. 1%DMSO day1). The growth rate was analysed using the linear regression algorithm of GraphPad Prism. […]

[6] = test system: 22Rv1 (AR‐positive) PCa cells; assay: 2D proliferation assay (resazurin), 22Rv1; type: cell-based
Experimental: (§6) Cell cultures, proliferation assay and spheroid gro wth
PC3 and 22Rv1 cells were cultured in RPMI 1640 medium containing 10% FBS, 1% penicillin-streptomycin and 2 m M L-glutamine. All cells were regularly tested for mycoplasma contamination.
For the proliferation assay, cells were counted with a hemocytometer and seeded in triplicates in 96-well plates (4 .5x10^3 cells/well for 22Rv1 and 2.0x103 for PC3) and let adhere overnight at 37°C, 5% CO2. The following day, the medium was replaced with RPMI 1640 containing either the carrier […]
as §5

PC3 spheroids = assay: Spheroid growth (3D), PC3; type: cell-based
Experimental: as §4
streptomycin and 2 m M L-glutamine. All cells were regularly tested for mycoplasma contamination. […]
Spheroids were obtained by plating PC3 and 22Rv1 cells in low -adhesion round bottom 96 -well […]
(§7) After seeding, the cells were centrifuged for 10 min at 1200 x g at 4°C. Spheroids were given 48 hours to form after seeding before adding the treatment or the carrier (0.1% DMSO). Medium supplemented with treatment/carrier was changed every 48 hours, for a total of 32 days for 22Rv1 and 16 days for PC3. Each spheroid was imaged in brightfield every day or every other day (after day 20), using a Leica DM IL microscope […]
(§8) equipped with a Leica DFC450C digital camera. The area of each spheroid was measured using ImageJ and the average area for each condition was calculated. The growth rate was analysed using the segmental linear regression algorithm of GraphPad Prism. The appropriateness of the model was evaluated by considering the R square values and the Replicates test (Suppl. Table 6). […]

22Rv1 spheroids = assay: Spheroid growth (3D), 22Rv1; type: cell-based
Experimental: as §6
PC3 and 22Rv1 cells were cultured in RPMI 1640 medium containing 10% FBS, 1% penicillin-streptomycin and 2 m M L-glutamine. All cells were regularly tested for mycoplasma contamination. […]
as §7, with “Spheroids were obtained by plating PC3 and 22Rv1 cells in low -adhesion round bottom 96 -well plates. For 22Rv1, 2500 cells/well were seeded in 200 µl RPMI 1640; for PC3, 250 cells/well were seeded in 200 µl RPMI 1640 supplemented with 1.5% Matrigel. After” for “After”
as §8

[7] = 3D setting, GSK2801 25 μM, BAZ2‐ICR 25 μM, BI9564 20 μM

With `CCC(=O)N1CCOc2c(cc(-c3ccc(OC)c(OC)c3)cc2OC[C@H]2CCCN(C)C2)C1` [I‐CBP112] the “% residual binding BAZ2A (100 μM)” value (BAZ2A bromodomain [1]) was 98 ± 2%, the “% residual binding BAZ2B (100 μM)” value (BAZ2B bromodomain) was 96 ± 1% and the “located in BAZ2A Kac pocket by co‐crystallization” value (shortened to “located in BAZ2A Kac pocket”) (BAZ2A bromodomain [2]) was “inability to act as BAZ2A inhibitors”. For the same compound, the “off‐target activity on the first bromodomain of BRD4” value [3] was “weak off‐target activity”.
In the case of `COc1ccc(CCc2nc3cc(-c4c(C)noc4C)ccc3n2C[C@H](C)N2CCOCC2)cc1Cl` [SGC‐CBP30], the “% residual binding BAZ2A (100 μM)” value (BAZ2A bromodomain [1]) is reported as 95 ± 4%, the “% residual binding BAZ2B (100 μM)” value (BAZ2B bromodomain) is reported as 92 ± 6% and the “located in BAZ2A Kac pocket” value (BAZ2A bromodomain [2]) is reported as “inability to act as BAZ2A inhibitors”. The “off‐target activity on the first bromodomain of BRD4” value [3] was “weak off‐target activity”.
For `CC(=O)n1cc(-c2c(C)nn3c2OCC3)c2ccccc21` [UZH23], the IC50 (BAZ2A bromodomain [1]; AlphaScreen) was 86 ± 9 µM, the “% residual binding BAZ2A (100 μM)” value (BAZ2A bromodomain [1]) was 52 ± 9% and the IC50 (BAZ2B bromodomain; AlphaScreen) was over 100 µM. For the same compound, the “% residual binding BAZ2B (100 μM)” value (BAZ2B bromodomain) was 62 ± 7%.
For `CN(C)CCCOc1ccc(-c2cc(NCCCn3cccn3)nc(S(C)(=O)=O)n2)cc1` [TP‐238], the “% residual binding BAZ2A (100 μM)” value (BAZ2A bromodomain [1]) was 81 ± 3%, the “% residual binding BAZ2B (100 μM)” value (BAZ2B bromodomain) was 77 ± 2% and the Kd (BAZ2A bromodomain [4]; 25°C, 0.25% DMSO, read-out: K D BAZ2A) was 108 ± 6 µM. It also gave a TΔS (BAZ2A bromodomain [4]; BAZ2A) of 2.68 kcal/mol, a ΔG (BAZ2A bromodomain [4]; BAZ2A) of -5.41 kcal/mol and a ΔH (BAZ2A bromodomain [4]; BAZ2A) of -2.73 ± 0.07 kcal/mol. For the same compound, the “N (sites)” value (BAZ2A bromodomain [4]; BAZ2A, one site model) was 1 sites, the “located in BAZ2A Kac pocket” value (BAZ2A bromodomain [2]) was “located in the BAZ2A Kac pocket” and the Kd (CECR2 bromodomain) was 10 nM. The Kd (BRD9) was 1100 nM and the Kd (BPTF) was 120 nM.
With `COc1cc(-c2cn(C)c(=O)c3cnccc23)c(OC)cc1CN(C)C` [BI9564] the “effect on 2D growth of PC3 cells” value ([5]; 2D‐cell culture, PC3) was “completely inactive on PC3 cells”, the “Slope (best-fit, linear regression of growth curve)” value ([5]; PC3, 0.1 µM) was 0,1514 and the “Slope (best-fit, linear regression of growth curve)” value ([5]; PC3, 0.25 µM) was 0,1530. For the same compound, the “Slope (best-fit, linear regression of growth curve)” value ([5]; PC3, 0.5 µM) was 0,1594, the “Slope (best-fit, linear regression of growth curve)” value ([5]; PC3, 1 µM) was 0,1557 and the “Slope (best-fit, linear regression of growth curve)” value ([5]; PC3, 2.5 µM) was 0,1485. For the same compound, the “Slope (best-fit, linear regression of growth curve)” value ([5]; PC3, 5 µM) was 0,1453, the “Slope (best-fit, linear regression of growth curve)” value ([5]; PC3, 10 µM) was 0,1454 and the “Slope (best-fit, linear regression of growth curve)” value ([5]; PC3, 20 µM) was 0,1470. For the same compound, the “effect on 2D growth of 22Rv1 cells” value ([6]; 2D‐cell culture, 22Rv1) was “only moderately affected 22Rv1 cell growth; also recorded: limited activity only on 22Rv1 cells”, the “Slope (best-fit, linear regression of growth curve)” value ([6]; 22Rv1, 0.1 µM) was 0,1043 and the “Slope (best-fit, linear regression of growth curve)” value ([6]; 22Rv1, 0.25 µM) was 0,1062. The “Slope (best-fit, linear regression of growth curve)” value ([6]; 22Rv1, 0.5 µM) was 0,1057, the “Slope (best-fit, linear regression of growth curve)” value ([6]; 22Rv1, 1 µM) was 0,1046 and the “Slope (best-fit, linear regression of growth curve)” value ([6]; 22Rv1, 2.5 µM) was 0,09943. The “Slope (best-fit, linear regression of growth curve)” value ([6]; 22Rv1, 5 µM) was 0,09452, the “Slope (best-fit, linear regression of growth curve)” value ([6]; 22Rv1, 10 µM) was 0,08987 and the “Slope (best-fit, linear regression of growth curve)” value ([6]; 22Rv1, 20 µM) was 0,08043. The “effect on growth of PC3 spheroids” value (PC3 spheroids; [7]) was “less effective on PC3”, the “slope2 (segmental linear regression of spheroid growth)” value (PC3 spheroids; PC3 spheroids, 20 µM, after X0 = day 6) was 69835 and the “slope1 (segmental linear regression of spheroid growth)” value (PC3 spheroids; PC3 spheroids, 20 µM, before X0 = day 6) was 28821. For the same compound, the “effect on growth of 22Rv1 spheroids” value (22Rv1 spheroids; [7]) was “reduced the growth of 22Rv1 spheroids”, the “slope2 (segmental linear regression of spheroid growth)” value (22Rv1 spheroids; 22Rv1 spheroids, 20 µM, after X0 = day 9) was 6998 and the “slope1 (segmental linear regression of spheroid growth)” value (22Rv1 spheroids; 22Rv1 spheroids, 20 µM, before X0 = day 9) was 12255.
